Reference: patent US12673041B2, “4-aminobut-2-enamide derivatives and salt thereof” (TAIHO PHARMACEUTICAL CO., LTD., priority 2019, dated 2026)

Tests used:
[1] = target: Gppcp-bound recombinant K-Ras4B G12C mutant protein (amino acids 1-169, C51S/C80L/C118S) (Homo sapiens, UniProt P01116, C118S/C51S/C80L/G12C); assay: KRASG12C binding assay (LC-MS compound binding rate); conditions: test compound final concentration 0.5 μM, 25° C., 1 hour
How it was run: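 Gppcp-bound K-Ras4B G12C (aa 1-169, C51S/C80L/C118S) at 50 nM in 1×TBS, 0.1 mM TCEP, 0.25 mM MgCl2, 50 μM Gppcp was incubated 1 hour at 25° C with compound at 0.5 μM final. Intact-protein LC-MS gave binding rate as single-adduct signal over total KRAS signal, graded A (≥80%) to E (<20%).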

[2] = target: T1, GMPPNP-bound KRAS G12C protein and cRAF RAS-binding domain (cRAF-RBD) (Homo sapiens, UniProt P01116, G12C); assay: Inhibitory activity on interaction between KRAS G12C and cRAF (Alpha technology); assay type: biochemical; conditions: GMPPNP-bound KRAS G12C incubated with compound at 25° C. for 1 hour, then cRAF-RBD, Alpha signal; read-out: IC50
T1 construct: made in house; host or cells: E. coli
How it was run: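 GMPPNP-loaded His-KRAS G12C (aa 1-169) preincubated 1 h at 25 °C with compound (pH 7.5 Tris, 1 mM MgCl2, TCEP, Tween 20), then cRAF-RBD (aa 50-132) and Alpha reagents added for 1.5 h at RT. Inhibition scaled between DMSO (0%) and GDP-bound KRAS (100%); IC50 by curve fitting.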

[3] = tested on: MIA PaCa-2 cells; assay: Growth inhibition activity on KRAS-G12C mutant cell line (MIA PaCa-2); assay type: cell-based; conditions: Homo sapiens, 72 h; MIA PaCa-2, 3-day culture, CellTiter-Glo 3D
Description: MIA PaCa-2 cells (given by Sumitomo Dainippon Pharma Co., Ltd.), which are a KRAS-G12C mutant human pancreas cancer cell line, were suspended in a 10% fetal bovine serum-containing RPMI1640 medium (manufactured by Fujifilm Wako Pure Chemical Corporation.). The cell suspension was seeded into each well of a 384-well U bottom microplate and cultured in an incubator containing 5% CO2 gas at 37° C. for 1 day. The compounds obtained in the “Preparation of Compounds” section were used as test compounds and were dissolved in DMSO, respectively, and each test compound was diluted with DMSO to give a concentration 500 times the final concentration. The resultant solution of the test compound in DMSO was diluted with the medium used for suspending cells and added to each well of the cell-culture plate to give a DMSO final concentration of 0.2%, followed by culture in an incubator containing 5% CO2 gas at 37° C. for another 3 days. The cell count after 3-day culture in the presence of the test compound was measured using CellTiter-Glo 3D Reagent (manufactured by Promega Corporation). All wells were added with CellTiter-Glo 3D Reagent and mixed for 10 minutes. 30 minutes after mixing, luminescence was measured by a plate reader. The growth inhibition rate was calculated from the following equation, and the concentration of the test compound at which 50% inhibition was achieved (IC50 (nM)) was determined. […] Growth Inhibition Rate (%)=(C−T)/(C)×100 • T: the emission intensity in a well into which a test compound was added. • C: the emission intensity in a well into which a test compound was not added.

| Compound | binding rate [1] | IC50 [2] | IC50 [3] |
| --- | --- | --- | --- |
| CO[C@H]1CC[C@H](NC/C=C/C(=O)Nc2ccc(C(=O)c3ccc4c(-c5c(Cl)cc6c(ncn6C)c5Cl)cccn34)cc2C#N)CC1 (single isomer, unassigned) [Example 62, (E)-N-(2-cyano-4-(8-(4,6-dichloro-1-methyl-1H-benzo[d]imidazol-5-yl)indolizine-3-carbonyl)phenyl)-4-(((1r,4r)-4-methoxycyclohexyl)amino)but-2-enamide] | A (A binding rate of 80% or more is rated “A”) | 57 nM | 43 nM |
| CO[C@H]1CC[C@H](NC/C=C/C(=O)Nc2ccc(C(=O)Nc3cccc(-c4cc5nc6n(c5cc4C)CCC6)n3)cc2C#N)CC1 [Example 3, 3-cyano-4-((E)-4-(((1r,4r)-4-methoxycyclohexyl)amino)but-2-enamido)-N-(6-(7-methyl-2,3-dihydro-1H-benzo[d]pyrrolo[1,2-a]imidazol-6-yl)pyridin-2-yl)benzamide] | B (a binding rate of 60% or more and less than 80% is rated “B”) | 50 nM | 83 nM |
| Cc1cc2c(cc1-c1cccn3c(C(=O)c4ccc(NC(=O)/C=C/CNC(C)(C)C)c(C#N)c4)ccc13)ncn2C [Example 5, (E)-4-(tert-butylamino)-N-(2-cyano-4-(8-(1,6-dimethyl-1H-benzo[d]imidazol-5-yl)indolizine-3-carbonyl)phenyl)but-2-enamide] | A (A binding rate of 80% or more is rated “A”) | 29 nM | 80 nM |
| CO[C@H]1CC[C@H](NC/C=C/C(=O)Nc2ccc(C(=O)c3ccc4c(-c5cc6ncn(C)c6cc5C(F)(F)F)cccn34)cc2C#N)CC1 [Example 6, (E)-N-(2-cyano-4-(8-(1-methyl-6-(trifluoromethyl)-1H-benzo[d]imidazol-5-yl)indolizine-3-carbonyl)phenyl)-4-(((1r,4r)-4-methoxycyclohexyl)amino)but-2-enamide] | A (A binding rate of 80% or more is rated “A”) | 15 nM | 43 nM |
| CO[C@H]1CC[C@H](NC/C=C/C(=O)Nc2ccc(C(=O)c3ccc4c(-c5cc6nc(C)n(C)c6cc5C(F)(F)F)cccn34)cc2C#N)CC1 [Example 7, (E)-N-(2-cyano-4-(8-(1,2-dimethyl-6-(trifluoromethyl)-1H-benzo[d]imidazol-5-yl)indolizine-3-carbonyl)phenyl)-4-(((1r,4r)-4-methoxycyclohexyl)amino)but-2-enamide] | A (A binding rate of 80% or more is rated “A”) | 35 nM | 49 nM |
| CO[C@H]1CC[C@H](NC/C=C/C(=O)Nc2ccc(C(=O)c3c[nH]c4c(-c5cc6ncn(C)c6cc5C(F)(F)F)cccc34)cc2C#N)CC1 [Example 8, (E)-N-(2-cyano-4-(7-(1-methyl-6-(trifluoromethyl)-1H-benzo[d]imidazol-5-yl)-1H-indole-3-carbonyl)phenyl)-4-(((1r,4r)-4-methoxycyclohexyl)amino)but-2-enamide] | A (A binding rate of 80% or more is rated “A”) | 19 nM | 52 nM |
| CO[C@H]1CC[C@H](NC/C=C/C(=O)Nc2ccc(C(=O)c3cnc4c(-c5cc6ncn(C)c6cc5C)cccn34)cc2C#N)CC1 [Example 9, (E)-N-(2-cyano-4-(8-(1,6-dimethyl-1H-benzo[d]imidazol-5-yl)imidazo[1,2-a]pyridine-3-carbonyl)phenyl)-4-(((1r,4r)-4-methoxycyclohexyl)amino)but-2-enamide] | B (a binding rate of 60% or more and less than 80% is rated “B”) | 66 nM | 100 nM |
| CCc1nc2cc(-c3cccc4c3CCN4C(=O)c3ccc(NC(=O)/C=C/CN[C@H]4CC[C@H](N5CCCC5)CC4)c(C#N)c3)c(C(F)(F)F)cc2n1C [Example 29, (E)-N-(2-cyano-4-(4-(2-ethyl-1-methyl-6-(trifluoromethyl)-1H-benzo[d]imidazol-5-yl)indoline-1-carbonyl)phenyl)-4-(((1r,4r)-4-(pyrrolidin-1-yl)cyclohexyl)amino)but-2-enamide] | A (A binding rate of 80% or more is rated “A”) | 95 nM | 410 nM |
| CCc1nc2cc(-c3cccc4c3CCN4C(=O)c3ccc(NC(=O)/C=C/CNC4CCN(C(C)C)CC4)c(C#N)c3)c(C(F)(F)F)cc2n1C [Example 30, (E)-N-(2-cyano-4-(4-(2-ethyl-1-methyl-6-(trifluoromethyl)-1H-benzo[d]imidazol-5-yl)indoline-1-carbonyl)phenyl)-4-((1-isopropylpiperidin-4-yl)amino)but-2-enamide] | A (A binding rate of 80% or more is rated “A”) | 75 nM | 370 nM |
| CO[C@H]1CC[C@H](NC/C=C/C(=O)Nc2ccc(C(=O)c3ccc4c(-c5cc6cn(C)nc6cc5C)cccn34)cc2C#N)CC1 [Example 76, (E)-N-(2-cyano-4-(8-(2,6-dimethyl-2H-indazol-5-yl)indolizine-3-carbonyl)phenyl)-4-(((1r,4r)-4-methoxycyclohexyl)amino)but-2-enamide] | A (A binding rate of 80% or more is rated “A”) | 130 nM | – |
| Cn1cnc2cc(-c3cccn4c(C(=O)c5ccc(NC(=O)/C=C/CNC(C)(C)C)c(Cl)c5)ccc34)c(C(F)(F)F)cc21 [Example 77, (E)-4-(tert-butylamino)-N-(2-chloro-4-(8-(1-methyl-6-(trifluoromethyl)-1H-benzo[d]imidazol-5-yl)indolizine-3-carbonyl)phenyl)but-2-enamide] | C (a binding rate of 40% or more and less than 60% is rated “C”) | 330 nM | – |
| CO[C@H]1CC[C@H](NC/C=C/C(=O)Nc2ccc(C(=O)c3ccc4c(-c5ccc6nn(C)c(Cl)c6c5Cl)cccn34)cc2C#N)CC1 [Example 79, (E)-N-(2-cyano-4-(8-(3,4-dichloro-2-methyl-2H-indazol-5-yl)indolizine-3-carbonyl)phenyl)-4-(((1r,4r)-4-methoxycyclohexyl)amino)but-2-enamide] | A (A binding rate of 80% or more is rated “A”) | 440 nM | – |
| CO[C@H]1CC[C@H](NC/C=C/C(=O)Nc2ccc(C(=O)c3ccc4c(-c5c(C)cc6c(ncn6C)c5-c5cccnc5)cccn34)cc2C#N)CC1 [Example 82, (E)-N-(2-cyano-4-(8-(1,6-dimethyl-4-(pyridin-3-yl)-1H-benzo[d]imidazol-5-yl)indolizine-3-carbonyl)phenyl)-4-(((1r,4r)-4-methoxycyclohexyl)amino)but-2-enamide] | A (A binding rate of 80% or more is rated “A”) | 150 nM | – |
| CO[C@H]1CC[C@H](NC/C=C/C(=O)Nc2ccc(C(=O)c3c[nH]c4c(-c5cc6ncn(C)c6cc5C(F)(F)F)cccc34)c(F)c2)CC1 [Example 83, (E)-N-(3-fluoro-4-(7-(1-methyl-6-(trifluoromethyl)-1H-benzo[d]imidazol-5-yl)-1H-indole-3-carbonyl)phenyl)-4-(((1r, 4r)-4-methoxycyclohexyl)amino)but-2-enamide] | A (A binding rate of 80% or more is rated “A”) | 440 nM | – |
